Tests used:
refractory sinusitis = conditions: large particle saline aerosol therapy with tobramycin added; cited from earlier work
sinusitis = type: in vivo, human; conditions: for efficacy of nose drop: nose drop (tobramycin 80 mg/ml; Mupirocin calcium 2%)
Method: A person had been suffering from sinusitis for most of their adult life. These sinusitis episodes seemed to be triggered by allergies. They historically had three-four (3–4) episodes of sinusitis each year, which were treated with oral antibiotics for four-eight (4–8) weeks per episode. These oral antibiotic regimens produced yeast infections, which were treated with Diflucan® (fluconazole). Relief from the headaches, malaise, facial pressure and pain, yellow-green nasal discharge, coughing and fever took up to six weeks and were treated with narcotic and non narcotic analgesics, decongestants, decongestant nasal sprays, cough suppressants, and nasal rinses. Their allergies were treated with antihistamines and anti-inflammatory agents. In an effort to reduce the duration of their sinusitis episodes, a nose drop of tobramycin 80 mg/ml was administered. […] The medication was irritating; and in order to administer the drops and try to get them into the sinus cavity, the patient had to hold their head back. This caused intolerable pain resulting in the discontinuation of the therapy. A nose drop of Bactoban® (Mupirocin calcium 2%) was tried. […] In order to eliminate the pain caused by holding their head back when administering nose drops, a nose drop of tobramycin was administered after the patient had been on oral antibiotics for a period of time.

sinus infection = experiment: Nebulized antibiotic treatment of sinusitis patients (case reports, Patients A, B, C); type: in vivo, human; conditions: for time to "dumping" of green, purulent nasal discharge: nebulized three times daily
Method: Thereafter, a preparation of tobramycin 80 mg/ml was administered using 3 ml in a Pari LC Star® nebulizer cup with adult mask attached and a Pari Proneb® compressor. The medication was nebulized three (3) times daily. After four days of therapy, the patient experienced a “dumping” of green, purulent nasal discharge. The therapy was continued for a total of seven (7) days. […] Another seven (7) day regimen of nebulized tobramycin was given to the patient.
A preparation of cefuroxime 285 mg in 2.5 ml sterile water for injection was administered three (3) times daily using a Pari LC Star® nebulizer cup with adult mask attached and a Pari Proneb® compressor. […] After one day of therapy, a Pari Turbo® compressor was substituted for the Pari Proneb® compressor. The patient experienced a “dumping” of green, purulent nasal discharge after (3) days of therapy.
After the seven (7) days of treatment with nebulized cefuroxime using the Pari Turbo® compressor and the Pari LC Star® nebulizer cup with mask, the patient has remained free of sinus infections for nine (9) months. They have continued to experience problems with their allergies, and while in the past these allergies triggered sinus infections, this time no such infection has recurred.
A person had been experiencing sinus infections off and on during their adult life. They were treated with cefuroxime 285 mg in 2.5 ml of sterile water for injection three (3) times daily using a Pari LC Star® nebulizer cup with adult mask attached and a Pari Turbo® compressor. The patient experienced a “dumping” of green, purulent nasal discharge after eight (8) treatments. The therapy was continued for a total of seven (7) days. No other antibiotics were given. This patient has been free from sinus infections for six (6) months.
They were treated with cefuroxime 285 mg in 2.5 ml of sterile water for injection three (3) times daily using a Pari LC Star® nebulizer cup with adult mask attached and a Pari Turbo® compressor. The patient experienced a “dumping” of green, purulent nasal discharge after eight (8) treatments. The therapy was continued form a total of seven (7) days. No other antibiotics were given. This patient has been free from sinus infections for six (6) months.

paranasal sinusitis = conditions: 4 ml of 3% FOM solution; ultrasonic-type nebulizer compared with jet-type; cited from earlier work
[1] = test system: clinical isolates from sinusitis patients; conditions: one percent (1%) solution used with a nebulizer; cited from earlier work
[2] = Patient A, second 7 day regimen of nebulized tobramycin

SMILES: NC[C@H]1O[C@H](O[C@H]2[C@H](O)[C@@H](O[C@H]3O[C@H](CO)[C@@H](O)[C@H](N)[C@H]3O)[C@H](N)C[C@@H]2N)[C@H](N)C[C@@H]1O [tobramycin, Tobramycin]
- benefit of addition to saline aerosol (refractory sinusitis): minimal benefit
- efficacy of nose drop (sinusitis; Patient A): did not seem to work
- efficacy of nose drop given after oral antibiotics (sinusitis; Patient A, nose drop after a period on oral antibiotics): did not seem to work
- tolerability of nose drop (sinusitis; human, in vivo): irritating
- relapse after first seven day regimen (sinus infection; Patient A, first 7 day regimen of nebulized tobramycin): relapse was experienced within a month
- time to "dumping" of green, purulent nasal discharge (sinus infection; Patient A): four
- outcome after second seven day regimen (sinus infection; [2]): sinus infection seemed to be eliminated
- time to recurrence after second seven day regimen (sinus infection; [2]): ≤ 2 months
- outcome after first seven day regimen (sinus infection; Patient A, tobramycin 80 mg/ml, 3 ml nebulized three times daily, 7 days): sinus infection had been eliminated

SMILES: C[C@@H]1O[C@@H]1P(=O)(O)O [FOM, fosfomycin]
- delivery to maxillary sinus surface, ultrasonic-type vs jet-type nebulizer (paranasal sinusitis): higher concentration of FOM to the maxillary sinus surface

SMILES: CO/N=C(\C(=O)N[C@@H]1C(=O)N2C(C(=O)O)=C(COC(N)=O)CS[C@H]12)c1ccco1 [cefuroxime, Cefuroxime]
- adverse event during nebulized therapy (sinus infection; Patient A, 285 mg in 2.5 ml nebulized three times daily, 7 days): contracted a yeast infection
- time free of sinus infections after treatment (sinus infection; Patient A, 285 mg in 2.5 ml nebulized three times daily, 7 days, Pari Turbo compressor): 9 months
- time to "dumping" of green, purulent nasal discharge (sinus infection; Patient A): 3 days
- number of treatments until "dumping" of green, purulent nasal discharge (sinus infection; Patient B, 285 mg in 2.5 ml nebulized three times daily): 8 treatments
- time free from sinus infections after treatment (sinus infection; Patient B, 285 mg in 2.5 ml nebulized three times daily, 7 days): 6 months
- number of treatments until "dumping" of green, purulent nasal discharge (sinus infection; Patient C, 285 mg in 2.5 ml nebulized three times daily): 8 treatments
- time free from sinus infections after treatment (sinus infection; Patient C, 285 mg in 2.5 ml nebulized three times daily, 7 days): 6 months

SMILES: CO/N=C(\C(=O)N[C@@H]1C(=O)N2C(C(=O)O)=C(CSc3nnnn3C)CS[C@H]12)c1csc(N)n1 [cefmenoxime]
- minimum inhibitory concentrations [1]: minimum inhibitory concentrations were lower

SMILES: C/C(=C\C(=O)OCCCCCCCCC(=O)[O-])C[C@@H]1OC[C@H](C[C@@H]2O[C@H]2[C@@H](C)[C@H](C)O)[C@@H](O)[C@H]1O.C/C(=C\C(=O)OCCCCCCCCC(=O)[O-])C[C@@H]1OC[C@H](C[C@@H]2O[C@H]2[C@@H](C)[C@H](C)O)[C@@H](O)[C@H]1O.O.O.[Ca+2] [Bactoban, Mupirocin calcium]
- efficacy of nose drop (sinusitis; Patient A): not efficacious

From US7128897B2, “Aerosolized anti-infectives, anti-inflammatories, and decongestants for the treatment of sinusitis” (Naryx Pharma, Inc., priority 1999, dated 2006)
